Assay results from PubChem BioAssay (NCI).
Several values for one entry are separate records, joined by “and”; a condition that tells them apart may be missing. Equal entries are not always repeated.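 48-hour exposure; five concentrations; linearly interpolated endpoints. GI50 marks 50% less growth. TGI denotes the concentration required for complete inhibition of growth.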

Assays:
Assay in all cases: growth of human tumour cells (NCI), 48 h
IGROV1 ovarian = system: IGROV1 ovarian
UACC-62 melanoma = system: UACC-62 melanoma
MOLT-4 leukemia = system: MOLT-4 leukemia
K-562 leukemia = system: K-562 leukemia
ACHN renal = system: ACHN renal
LXFL 529 NSCLC = system: LXFL 529 NSCLC
OVCAR-3 ovarian = system: OVCAR-3 ovarian
LOX IMVI melanoma = system: LOX IMVI melanoma
SW-620 colon = system: SW-620 colon
KM20L2 colon = system: KM20L2 colon

SMILES | GI50 (IGROV1 ovarian) [µM] | TGI (IGROV1 ovarian) | GI50 (UACC-62 melanoma) [µM] | TGI (UACC-62 melanoma) | GI50 (MOLT-4 leukemia) [µM] | TGI (MOLT-4 leukemia) | GI50 (K-562 leukemia) [µM] | TGI (K-562 leukemia) | GI50 (ACHN renal) [µM] | TGI (ACHN renal) | GI50 (LXFL 529 NSCLC) [µM] | TGI (LXFL 529 NSCLC) [µM] | GI50 (OVCAR-3 ovarian) [µM] | TGI (OVCAR-3 ovarian) | GI50 (LOX IMVI melanoma) [µM] | TGI (LOX IMVI melanoma) | GI50 (SW-620 colon) [µM] | TGI (SW-620 colon) | GI50 (KM20L2 colon) [µM] | TGI (KM20L2 colon) [µM]
C[CH2][Sn]([CH2]C)([O]C(=O)c1ccc(F)cc1)[O]C(=O)c1ccc(F)cc1 | > 80.5 | > 100 µM | 17.7 | 36.6 µM | 26.7 | > 85.1 µM | 16.7 | 64.7 µM | 17.8 | 32.4 µM | 7.84 | 21.1 | > 48 | > 82.2 µM | 18 | 37.9 µM | 22 | 46.7 µM | 72.6 | > 100
CCOC(=O)CN1C(=O)c2cc([N+](=O)[O-])cc3cc([N+](=O)[O-])cc(c23)C1=O | – | > 100 µM | – | > 100 µM | – | > 64.9 µM | – | > 100 µM | – | > 100 µM | – | > 100 | – | > 100 µM | – | > 100 µM | – | > 100 µM | – | > 100
CCC1=C(CC2NCCc3ccccc32)CC2c3cc(OC)c(OC)cc3CCN2C1 (configuration not stated) | 4.39 | 21.6 µM and 19 µM | 13.9 | 27.5 µM and 6.66 µM | 3.39 | 13.8 µM and 2.2 µM | 2.26 | 7.41 µM and 2.1 µM | 3.96 | 37.6 µM and 3.9 µM | – | > 100 | 3.61 | 19 µM and 11.3 µM | 4.4 | 15.5 µM and 5.68 µM | 3.62 | 13.4 µM and 6.81 µM | – | 26.5
O=C([O-])CC(=O)[O-].[NH-][C@@H]1CCCC[C@H]1[NH-].[Pt+4] | 33.5 | > 100 µM | 20.2 | > 100 µM | 1.29 | 61.4 µM | 3.66 | > 100 µM | > 35.9 | > 100 µM | 25.2 | > 100 | 24.9 | > 100 µM | 15 | > 100 µM | 2.1 | > 100 µM | – | > 100
C[C@H]1C=C2C(=O)O[C@H]3CC[C@@H](C1)[C@@]23O | – | 19 µM | – | 13.2 µM | – | > 100 µM | – | 8.26 µM | – | 17.2 µM | – | 10.6 | – | 16.9 µM | – | 10.3 µM | – | 10.3 µM | – | 16.2
O/N=C/c1ccc(O)c(O)c1 | – | > 100 µM | – | > 100 µM | – | > 100 µM | – | > 100 µM | – | > 100 µM | – | > 100 | – | > 100 µM | – | > 100 µM | – | 35.3 µM | – | > 100
CC(=O)[CH-]C(=O)c1ccccc1.CC(=O)[CH-]C(=O)c1ccccc1.[O-]c1ccc2c(c1)OCO2.[O-]c1ccc2c(c1)OCO2.[Ti+4] | 34.5 | > 100 µM | 47.5 | > 100 µM | 15.4 | 51.5 µM | 31.5 | > 100 µM | 31.6 | > 100 µM | 19.3 | 49.9 | 26.8 | > 100 µM | 18.2 | 55 µM | 32.1 | > 100 µM | 67.9 | > 100
C1=CCCC=CCC1.C[PH+](C)C.C[PH+](C)C.C[PH+](C)C.[Cl-].[Ir] | 36.3 | > 100 µM | 32.6 | > 100 µM | 30.2 | > 100 µM | 26.6 | > 100 µM | > 100 | > 100 µM | 17.3 | 62.2 | 29.6 | 77.4 µM | 31.4 | > 100 µM | 36.4 | > 100 µM | > 100 | > 100
N#Cc1cccc(N2C(=O)C3C4C=CC(C3C2=O)C2C(=O)N(c3cccc(C#N)c3)C(=O)C42)c1 (configuration not stated) | – | 49.2 µM | – | > 100 µM | – | 50.2 µM | – | 55.8 µM | – | 55.2 µM | – | > 46.4 | – | > 100 µM | – | > 63.1 µM | – | > 100 µM | – | > 100
COc1cc2cnc3c4cc(OCc5ccccc5)ccc4ccc3c2cc1OC | – | > 100 µM | – | > 100 µM | – | 30.9 µM | – | > 100 µM | – | > 100 µM | – | > 100 | – | > 100 µM | – | > 100 µM | – | > 100 µM | – | > 100
C=C1C[C@@H]2C[C@@H](C)CC(O)[C@]2(CCCN)C1O (some centres not stated) | – | > 100 µM | – | > 100 µM | – | > 100 µM | – | > 100 µM | – | > 100 µM | – | > 100 | – | > 100 µM | – | > 100 µM | – | > 100 µM | – | > 100
CC1c2[nH]c3ccccc3c2CCN1O (configuration not stated) | – | > 100 µM | – | > 100 µM | – | > 100 µM | – | > 100 µM | – | > 100 µM | – | > 100 | – | > 100 µM | – | > 100 µM | – | > 100 µM | – | > 100
